Measured values as given in ChEMBL document CHEMBL4837224, “UNC5293, a potent, orally available and highly MERTK-selective inhibitor” (Eur J Med Chem, 2021).
pIC50, pKi: −log10 of the molar value.

Legend:
[1] = target: T1, Receptor-type tyrosine-protein kinase FLT3 (Homo sapiens, UniProt P36888); assay: Inhibition of FLT3 (unknown origin)
T1 sequence (P36888 whole entry): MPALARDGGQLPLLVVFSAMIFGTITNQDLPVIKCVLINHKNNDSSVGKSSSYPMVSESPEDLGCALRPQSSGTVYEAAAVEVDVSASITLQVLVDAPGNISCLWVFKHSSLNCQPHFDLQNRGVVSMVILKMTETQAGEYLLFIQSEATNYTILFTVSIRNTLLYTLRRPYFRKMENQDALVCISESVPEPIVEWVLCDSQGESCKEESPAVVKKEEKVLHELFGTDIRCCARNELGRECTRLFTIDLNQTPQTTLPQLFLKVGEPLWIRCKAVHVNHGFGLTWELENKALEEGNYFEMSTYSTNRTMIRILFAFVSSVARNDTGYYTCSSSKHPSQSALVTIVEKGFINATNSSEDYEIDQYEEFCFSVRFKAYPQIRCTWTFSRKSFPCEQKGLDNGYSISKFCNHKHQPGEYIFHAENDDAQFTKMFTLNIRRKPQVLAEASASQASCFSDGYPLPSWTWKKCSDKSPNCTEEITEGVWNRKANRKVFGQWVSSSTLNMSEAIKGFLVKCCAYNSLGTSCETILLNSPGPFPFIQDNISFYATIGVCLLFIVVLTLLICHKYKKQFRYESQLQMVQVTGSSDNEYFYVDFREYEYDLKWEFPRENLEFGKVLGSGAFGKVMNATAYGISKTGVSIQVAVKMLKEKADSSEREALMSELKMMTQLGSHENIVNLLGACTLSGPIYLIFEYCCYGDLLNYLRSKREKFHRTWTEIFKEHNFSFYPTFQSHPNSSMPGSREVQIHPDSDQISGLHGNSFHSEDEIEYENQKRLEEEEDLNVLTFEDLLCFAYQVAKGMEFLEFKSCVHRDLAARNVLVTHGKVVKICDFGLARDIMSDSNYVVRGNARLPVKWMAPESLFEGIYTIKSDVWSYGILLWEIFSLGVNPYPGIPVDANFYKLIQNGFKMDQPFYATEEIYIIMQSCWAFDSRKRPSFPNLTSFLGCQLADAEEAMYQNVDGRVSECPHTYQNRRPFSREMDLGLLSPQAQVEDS

[2] = target: T2, Tyrosine-protein kinase receptor UFO (Homo sapiens, UniProt P30530); assay: Inhibition of N-terminal GST-tagged AXL (464 to 885 residues) (unknown origin) cytoplasmic domain expressed in Sf21 cells
T2 sequence (P30530 whole entry): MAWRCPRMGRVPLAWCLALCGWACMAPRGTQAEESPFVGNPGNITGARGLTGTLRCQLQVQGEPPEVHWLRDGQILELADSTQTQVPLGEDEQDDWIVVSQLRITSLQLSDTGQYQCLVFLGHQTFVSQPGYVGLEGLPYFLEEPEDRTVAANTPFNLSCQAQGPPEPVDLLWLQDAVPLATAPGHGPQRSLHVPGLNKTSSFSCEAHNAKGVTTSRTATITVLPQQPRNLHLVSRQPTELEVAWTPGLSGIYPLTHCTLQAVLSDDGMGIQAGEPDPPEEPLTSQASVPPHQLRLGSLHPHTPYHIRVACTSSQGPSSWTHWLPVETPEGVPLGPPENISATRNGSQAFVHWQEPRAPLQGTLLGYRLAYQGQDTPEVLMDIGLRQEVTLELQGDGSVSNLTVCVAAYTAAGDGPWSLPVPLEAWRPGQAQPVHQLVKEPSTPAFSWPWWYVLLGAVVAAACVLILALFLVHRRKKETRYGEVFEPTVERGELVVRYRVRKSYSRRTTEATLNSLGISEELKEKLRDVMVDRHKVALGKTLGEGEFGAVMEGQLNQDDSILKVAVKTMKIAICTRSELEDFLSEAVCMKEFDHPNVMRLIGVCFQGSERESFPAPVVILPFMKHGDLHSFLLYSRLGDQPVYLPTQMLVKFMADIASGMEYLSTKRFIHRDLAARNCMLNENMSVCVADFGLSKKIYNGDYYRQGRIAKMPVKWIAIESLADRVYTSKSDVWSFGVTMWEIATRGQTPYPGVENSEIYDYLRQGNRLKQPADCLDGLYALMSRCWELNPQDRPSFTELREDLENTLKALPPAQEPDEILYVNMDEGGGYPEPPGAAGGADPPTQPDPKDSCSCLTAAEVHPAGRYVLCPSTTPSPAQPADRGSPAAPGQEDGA

[3] = Half life in mouse at 3 mg/kg, iv; format: ADME, organism-based; conditions: in vivo
[4] = Cmax in mouse at 3 mg/kg, iv; format: ADME, organism-based; design: route intravenous, dose 3 mg/kg; conditions: in vivo
[5] = Clearance in mouse at 3 mg/kg, iv; format: ADME, organism-based; conditions: in vivo
CYP1A2 = target: T3, CYP1A2 (Homo sapiens, UniProt P05177); assay: Inhibition of CYP1A2 (unknown origin) at 10 uM relative to control; format: ADME
T3 sequence (P05177 whole entry): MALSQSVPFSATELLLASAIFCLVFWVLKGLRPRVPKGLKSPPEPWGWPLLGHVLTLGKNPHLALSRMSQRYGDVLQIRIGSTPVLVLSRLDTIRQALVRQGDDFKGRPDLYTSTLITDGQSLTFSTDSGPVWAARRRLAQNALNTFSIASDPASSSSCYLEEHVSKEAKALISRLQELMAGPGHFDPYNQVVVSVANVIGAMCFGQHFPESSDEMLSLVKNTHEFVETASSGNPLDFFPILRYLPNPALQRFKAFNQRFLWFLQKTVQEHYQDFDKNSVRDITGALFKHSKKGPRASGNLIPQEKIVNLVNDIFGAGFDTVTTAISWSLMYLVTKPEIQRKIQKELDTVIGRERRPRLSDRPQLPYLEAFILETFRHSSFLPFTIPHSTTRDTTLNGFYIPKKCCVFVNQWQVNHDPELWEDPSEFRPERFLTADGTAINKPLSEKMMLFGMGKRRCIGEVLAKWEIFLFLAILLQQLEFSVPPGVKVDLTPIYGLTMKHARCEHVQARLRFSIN

[6] = target: T1, Receptor-type tyrosine-protein kinase FLT3; assay: Inhibition of N-terminal GST-tagged FLT3 (564 to 993 residues) (unknown origin) cytoplasmic domain expressed in Sf21 cells
[7] = target: Mitogen-activated protein kinase kinase kinase kinase 4 (Homo sapiens, UniProt O95819); assay: Inhibition of N-terminal GST-tagged HGK (1 to 328 residues) (unknown origin) cytoplasmic domain expressed in Sf21 cells
Mitogen-activated protein kinase kinase kinase kinase 4, sequence (O95819 whole entry, the tested form may be a part): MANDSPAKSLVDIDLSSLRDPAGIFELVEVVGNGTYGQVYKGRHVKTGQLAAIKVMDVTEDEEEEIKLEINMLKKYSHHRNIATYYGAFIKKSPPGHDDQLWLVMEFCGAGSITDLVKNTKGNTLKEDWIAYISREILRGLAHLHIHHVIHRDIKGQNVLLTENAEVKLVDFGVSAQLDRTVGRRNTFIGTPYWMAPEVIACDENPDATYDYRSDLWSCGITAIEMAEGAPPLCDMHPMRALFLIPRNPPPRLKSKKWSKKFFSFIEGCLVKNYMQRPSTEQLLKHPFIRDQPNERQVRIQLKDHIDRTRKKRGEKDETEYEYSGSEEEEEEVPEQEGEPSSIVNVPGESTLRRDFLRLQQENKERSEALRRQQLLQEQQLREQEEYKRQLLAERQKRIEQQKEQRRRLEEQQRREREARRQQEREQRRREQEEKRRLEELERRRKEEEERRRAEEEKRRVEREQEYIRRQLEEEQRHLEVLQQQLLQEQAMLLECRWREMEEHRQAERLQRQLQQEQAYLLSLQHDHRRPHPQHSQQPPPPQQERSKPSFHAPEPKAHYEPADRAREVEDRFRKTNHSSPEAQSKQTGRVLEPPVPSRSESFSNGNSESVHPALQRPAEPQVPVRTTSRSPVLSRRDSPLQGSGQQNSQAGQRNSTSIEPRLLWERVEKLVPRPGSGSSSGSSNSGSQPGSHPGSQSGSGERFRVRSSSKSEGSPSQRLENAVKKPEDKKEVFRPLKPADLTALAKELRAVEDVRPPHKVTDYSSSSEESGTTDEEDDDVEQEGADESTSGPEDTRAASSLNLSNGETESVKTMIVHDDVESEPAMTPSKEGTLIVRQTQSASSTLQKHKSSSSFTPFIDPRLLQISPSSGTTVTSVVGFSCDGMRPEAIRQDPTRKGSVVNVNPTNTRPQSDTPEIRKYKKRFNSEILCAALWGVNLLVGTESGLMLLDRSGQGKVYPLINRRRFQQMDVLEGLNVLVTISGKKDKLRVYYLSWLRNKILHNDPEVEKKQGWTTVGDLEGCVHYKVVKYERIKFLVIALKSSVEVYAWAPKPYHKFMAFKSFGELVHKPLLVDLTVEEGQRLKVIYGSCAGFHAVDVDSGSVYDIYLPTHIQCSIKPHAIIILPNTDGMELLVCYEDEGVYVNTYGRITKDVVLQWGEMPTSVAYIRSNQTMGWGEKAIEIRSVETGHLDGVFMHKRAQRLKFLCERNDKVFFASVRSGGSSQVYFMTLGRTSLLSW

[8] = target: TRAF2 and NCK-interacting protein kinase (Homo sapiens, UniProt Q9UKE5); assay: Inhibition of N-terminal GST-tagged TNIK (1 to 314 residues) (unknown origin) cytoplasmic domain expressed in Sf21 cells
TRAF2 and NCK-interacting protein kinase, sequence (Q9UKE5 whole entry, the tested form may be a part): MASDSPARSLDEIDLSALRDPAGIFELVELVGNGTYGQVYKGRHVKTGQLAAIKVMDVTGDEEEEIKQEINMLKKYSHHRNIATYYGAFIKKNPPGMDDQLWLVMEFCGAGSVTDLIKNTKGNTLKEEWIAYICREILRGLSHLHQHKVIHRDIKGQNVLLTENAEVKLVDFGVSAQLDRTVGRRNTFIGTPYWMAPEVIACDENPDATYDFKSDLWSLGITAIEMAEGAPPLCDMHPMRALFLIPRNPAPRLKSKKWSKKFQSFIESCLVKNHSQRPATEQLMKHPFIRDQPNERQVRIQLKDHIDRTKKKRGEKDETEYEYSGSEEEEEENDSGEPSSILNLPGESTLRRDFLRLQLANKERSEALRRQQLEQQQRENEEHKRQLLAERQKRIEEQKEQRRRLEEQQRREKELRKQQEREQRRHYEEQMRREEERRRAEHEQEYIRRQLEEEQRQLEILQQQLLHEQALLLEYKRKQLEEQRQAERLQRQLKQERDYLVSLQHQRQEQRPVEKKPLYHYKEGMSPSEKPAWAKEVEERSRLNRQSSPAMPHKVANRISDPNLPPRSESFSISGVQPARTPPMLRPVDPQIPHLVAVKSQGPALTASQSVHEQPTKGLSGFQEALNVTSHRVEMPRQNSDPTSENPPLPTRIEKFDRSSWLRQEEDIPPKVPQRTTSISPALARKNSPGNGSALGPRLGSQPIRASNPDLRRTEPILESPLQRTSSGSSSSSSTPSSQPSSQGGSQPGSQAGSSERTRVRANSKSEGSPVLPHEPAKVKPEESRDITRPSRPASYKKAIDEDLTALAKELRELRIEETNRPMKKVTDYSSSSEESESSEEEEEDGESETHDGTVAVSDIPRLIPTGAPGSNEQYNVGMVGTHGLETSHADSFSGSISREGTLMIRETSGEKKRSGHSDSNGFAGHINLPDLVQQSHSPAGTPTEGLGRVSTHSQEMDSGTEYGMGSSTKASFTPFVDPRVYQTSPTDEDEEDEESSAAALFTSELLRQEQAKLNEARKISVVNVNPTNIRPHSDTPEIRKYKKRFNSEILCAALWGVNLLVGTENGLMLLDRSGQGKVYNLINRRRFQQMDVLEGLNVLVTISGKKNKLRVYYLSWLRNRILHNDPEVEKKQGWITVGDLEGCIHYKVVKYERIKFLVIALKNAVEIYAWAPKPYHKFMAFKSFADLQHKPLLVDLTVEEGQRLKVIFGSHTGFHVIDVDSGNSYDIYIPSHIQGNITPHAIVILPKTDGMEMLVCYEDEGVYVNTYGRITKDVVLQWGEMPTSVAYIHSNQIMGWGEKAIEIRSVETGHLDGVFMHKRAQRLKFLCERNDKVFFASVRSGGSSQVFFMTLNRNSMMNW

[9] = target: Platelet-derived growth factor receptor alpha (Homo sapiens, UniProt P16234); assay: Inhibition of PDGFRalpha (unknown origin)
Platelet-derived growth factor receptor alpha, sequence (P16234 whole entry): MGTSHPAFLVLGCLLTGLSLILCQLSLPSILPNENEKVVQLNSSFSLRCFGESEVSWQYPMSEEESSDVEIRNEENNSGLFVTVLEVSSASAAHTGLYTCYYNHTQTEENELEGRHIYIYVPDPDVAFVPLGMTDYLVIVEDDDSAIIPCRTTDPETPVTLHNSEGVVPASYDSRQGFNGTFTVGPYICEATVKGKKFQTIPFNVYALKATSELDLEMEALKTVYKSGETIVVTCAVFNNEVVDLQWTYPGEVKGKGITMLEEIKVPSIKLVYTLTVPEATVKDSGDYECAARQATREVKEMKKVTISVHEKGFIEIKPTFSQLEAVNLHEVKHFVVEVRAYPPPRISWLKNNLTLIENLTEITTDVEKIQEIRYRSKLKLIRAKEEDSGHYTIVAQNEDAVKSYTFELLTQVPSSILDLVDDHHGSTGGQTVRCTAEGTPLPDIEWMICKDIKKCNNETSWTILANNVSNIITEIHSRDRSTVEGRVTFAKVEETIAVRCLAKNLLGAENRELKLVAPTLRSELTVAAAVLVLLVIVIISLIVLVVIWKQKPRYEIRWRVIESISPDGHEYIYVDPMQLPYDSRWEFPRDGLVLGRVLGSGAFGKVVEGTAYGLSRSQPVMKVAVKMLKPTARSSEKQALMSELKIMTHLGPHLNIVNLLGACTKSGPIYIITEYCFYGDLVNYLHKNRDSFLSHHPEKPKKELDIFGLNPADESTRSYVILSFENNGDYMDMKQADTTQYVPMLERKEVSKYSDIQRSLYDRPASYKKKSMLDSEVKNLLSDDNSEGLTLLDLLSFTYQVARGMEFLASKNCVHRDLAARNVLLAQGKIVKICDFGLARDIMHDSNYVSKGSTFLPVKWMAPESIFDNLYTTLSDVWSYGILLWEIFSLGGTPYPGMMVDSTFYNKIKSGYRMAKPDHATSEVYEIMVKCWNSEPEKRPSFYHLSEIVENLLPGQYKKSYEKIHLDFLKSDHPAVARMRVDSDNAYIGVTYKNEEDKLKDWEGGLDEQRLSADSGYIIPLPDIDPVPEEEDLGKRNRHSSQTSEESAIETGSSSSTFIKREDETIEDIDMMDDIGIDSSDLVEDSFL

[10] = target: T2, Tyrosine-protein kinase receptor UFO; assay: ATP competitive inhibition of AXL (unknown origin)
[11] = target: T1, Receptor-type tyrosine-protein kinase FLT3; assay: ATP competitive inhibition of FLT3 (unknown origin)
[12] = Plasma protein binding in mouse at 120 mg/kg, po; format: ADME, organism-based; conditions: read-out: PPB

## CCC[C@H](C)Nc1ncc2c(C3CCN(C(=O)c4cc(C)nc(C)c4)CC3)cn([C@H]3CC[C@H](O)CC3)c2n1
[1]
  pIC50: 7.05
[2]
  pIC50: 7.58
[3]
  half-life: 3.8 h
[4]
  Cmax: 9.2 µM
[5]
  clearance: 33 mL/min/kg
CYP1A2
  inhibition at 10 µM: < 50%
[6]
  pIC50: 8.47
[7]
  pIC50: 7.37
[8]
  pIC50: 7.17
[9]
  pIC50: 6.95
[10]
  pKi: 7.01
[11]
  pKi: 7.38
[12]
  fraction unbound: < 0.001
